In patent US20060069132A1, “Azolecarboxamide herbicides” (priority 2004, published 2006):

Tests used:
[1] = system: barnyardgrass; assay: Test B pre-/postemergence herbicide test; assay type: in vivo, Echinochloa crus-galli; details: for Plant response rating (0 to 100 scale), Barnyardgrass: 0 is no effect
Method in brief: (§1)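 Response was scored visually 13 to 15 days after treatment against untreated greenhouse controls, 0 meaning no effect and 100 complete control. Formulations (solvent mixture plus surfactant) went onto soil after planting, onto foliage of 1- to 4-leaf plants, and onto 2-leaf plants in a flooded paddy set including rice and barnyardgrass.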

[2] = system: Surinam grass; assay: Test B pre-/postemergence herbicide test; assay type: in vivo, Urochloa decumbens; details: for Plant response rating (0 to 100 scale), Surinam Grass: 0 is no effect
Method in brief: (§2)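 Flooded paddy rice and barnyardgrass were treated at the 2-leaf stage; upland plantings received compound either on sown seed or on 1- to 4-leaf seedlings. All were kept 13–15 days in a greenhouse and scored visually, 0–100, relative to untreated plants.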

[3] = system: corn; assay: Test B pre-/postemergence herbicide test; assay type: in vivo, Zea mays; details: for Plant response rating (0 to 100 scale), Corn: 0 is no effect
Method in brief: as §2

[4] = system: large crabgrass; assay: Test B pre-/postemergence herbicide test; assay type: in vivo, Digitaria sanguinalis; details: for Plant response rating (0 to 100 scale), Crabgrass, Large: 0 is no effect
Method in brief: as §2

[5] = system: giant foxtail; assay: Test B pre-/postemergence herbicide test; assay type: in vivo, Setaria faberi; details: for Plant response rating (0 to 100 scale), Foxtail, Giant: 0 is no effect
Method in brief: as §2

[6] = system: morningglory; assay: Test B pre-/postemergence herbicide test; assay type: in vivo, Ipomoea coccinea; details: for Plant response rating (0 to 100 scale), Morningglory: 0 is no effect
Method in brief: as §1

[7] = system: pigweed; assay: Test B pre-/postemergence herbicide test; assay type: in vivo, Amaranthus retroflexus; details: for Plant response rating (0 to 100 scale), Pigweed: 0 is no effect
Method in brief: as §2

[8] = system: velvetleaf; assay: Test B pre-/postemergence herbicide test; assay type: in vivo, Abutilon theophrasti; details: for Plant response rating (0 to 100 scale), Velvetleaf: 0 is no effect
Method in brief: as §2

[9] = system: blackgrass; assay: Test B postemergence herbicide test; assay type: in vivo, Alopecurus myosuroides
Method in brief: (§3)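 Visual control ratings, 0–100 versus untreated controls, taken after 13 to 15 days in the greenhouse. Blackgrass received a postemergence spray at the 1- to 4-leaf stage (2–18 cm); ducksalad, umbrella sedge and barnyardgrass were flooded-paddy treated at 2 leaves.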

[10] = system: wheat; assay: Test B postemergence herbicide test; assay type: in vivo, Triticum aestivum; parameters: key to Wheat plant response rating: 0 = no effect, 100 = complete control
Method in brief: (§4)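 After treating 2-leaf paddy plants or 2–18 cm postemergence plants (1 to 4 leaves) with formulated chemical, researchers kept them in a greenhouse for 13–15 days. Effects were judged visually versus controls: 0 indicates none, 100 total control.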

[11] = system: wild oat; assay: Test B postemergence herbicide test; assay type: in vivo, Avena fatua
Method in brief: as §4

[12] = system: rice; assay: Test B flooded paddy test; assay type: in vivo, Oryza sativa; details: 1000 g ai/ha, scale 0 to 100 (0 no effect, 100 complete control)
Method in brief: as §4

[13] = system: small flower umbrella sedge; assay: Test B flooded paddy test; assay type: in vivo, Cyperus difformis; details: 1000 g ai/ha, scale 0 to 100 (0 no effect, 100 complete control)
Method in brief: as §3

[14] = system: ducksalad; assay: Test B flooded paddy test; assay type: in vivo, Heteranthera limosa; details: 1000 g ai/ha, scale 0 to 100 (0 no effect, 100 complete control)
Method in brief: as §3

[15] = system: barnyardgrass; assay: Test B flooded paddy test; assay type: in vivo, Echinochloa crus-galli; details: 1000 g ai/ha, scale 0 to 100 (0 no effect, 100 complete control)
Method in brief: as §3

[16] = 125 g ai/ha, 0 = no effect, 100 = complete control, preemergence
[17] = 500 g ai/ha, visual rating 0-100, 0 no effect, 100 complete control, preemergence
[18] = postemergence, 125 g ai/ha, visual rating, scale 0 (no effect) to 100 (complete control)
[19] = postemergence, 500 g ai/ha, visual rating, scale 0 (no effect) to 100 (complete control)
[20] = 125 g ai/ha, 100 is complete control, preemergence
[21] = 125 g ai/ha, visual rating, scale 0 (no effect) to 100 (complete control), postemergence
[22] = 500 g ai/ha, visual rating, 0 = no effect, 100 = complete control, preemergence
[23] = postemergence, 500 g ai/ha, scale 0 to 100, 0 is no effect, 100 is complete control
[24] = Postemergence, 500 g ai/ha, scale 0 (no effect) to 100 (complete control)
[25] = postemergence, 125 g ai/ha, scale 0 to 100
[26] = 500 g ai/ha, scale 0 to 100, 0 no effect, 100 complete control, preemergence

C=CCNC(=O)c1cccc(NC(=O)c2sc(C(C)(C)C)nc2C)c1 [Compound 202]
40: Morningglory plant response rating [6, 19] | Pigweed plant response rating [7, 19] | Barnyardgrass plant response rating ([15]; visual rating, 13 to 15 days)
30: Plant response rating, Morningglory [6, 17] | Pigweed plant response rating [7, 18] | Velvetleaf plant response rating [8, 19] | Rice plant response rating ([12]; visual rating, 13 to 15 days)
10: Surinam Grass plant response rating [2, 18] | Surinam Grass plant response rating [2, 19] | Corn plant response rating [3, 18] | Corn plant response rating [3, 19] | Crabgrass, Large plant response rating [4, 19] | Foxtail, Giant plant response rating (0 to 100 scale) [5, 16] | Foxtail, Giant plant response rating [5, 18] | Foxtail, Giant plant response rating [5, 19] | Pigweed plant response rating (0 to 100 scale) [7, 16] | Velvetleaf plant response rating (0 to 100 scale) [8, 16] | Velvetleaf plant response rating [8, 18] | Oat, Wild plant response rating [11, 18] | Oat, Wild plant response rating [11, 19]
60: Plant response rating, Surinam Grass [2, 17] | Crabgrass, Large plant response rating (0 to 100 scale) [4, 16] | Ducksalad plant response rating ([14]; visual rating, 13 to 15 days)
20: Barnyardgrass plant response rating (0 to 100 scale) [1, 16] | Plant response rating, Corn [3, 17] | Morningglory plant response rating [6, 18] | Plant response rating, Velvetleaf [8, 17]
90: Plant response rating, Barnyardgrass [1, 17] | Plant response rating, Foxtail, Giant [5, 17] | Plant response rating, Pigweed [7, 17]
100: Plant response rating, Crabgrass, Large [4, 17]
0: Barnyardgrass plant response rating [1, 18] | Barnyardgrass plant response rating [1, 19] | Surinam Grass plant response rating (0 to 100 scale) [2, 16] | Corn plant response rating (0 to 100 scale) [3, 16] | Crabgrass, Large plant response rating [4, 18] | Morningglory plant response rating (0 to 100 scale) [6, 16] | Blackgrass plant response rating [9, 18] | Blackgrass plant response rating [9, 19] | Wheat plant response rating [10, 18] | Wheat plant response rating [10, 19]
50: Sedge, Umbrella plant response rating ([13]; visual rating, 13 to 15 days)

CCC1=NN(C(C)(C)C)CC1C(=O)Nc1cc(C(=O)N2CCCC2)ccc1F (racemic) [Compound 341]
50: Plant response rating (0 to 100 scale), Foxtail, Giant [5, 20]
80: Plant response rating (0 to 100 scale), Barnyardgrass [1, 20] | Sedge, Umbrella plant response rating [13]
90: Plant response rating (0 to 100 scale), Crabgrass, Large [4, 20] | Plant response rating, Foxtail, Giant [5, 22] | Plant response rating (0 to 100 scale), Pigweed [7, 20] | Ducksalad plant response rating [14] | Barnyardgrass plant response rating [15]
40: Morningglory plant response rating [6, 23]
10: Barnyardgrass plant response rating [1, 21] | Surinam Grass plant response rating [2, 21] | Corn plant response rating [3, 23] | Crabgrass, Large plant response rating [4, 21] | Blackgrass plant response rating [9, 21] | Wheat plant response rating [10, 21]
0: Corn plant response rating [3, 21] | Oat, Wild plant response rating [11, 21]
70: Rice plant response rating [12]
20: Barnyardgrass plant response rating [1, 23] | Surinam Grass plant response rating [2, 23] | Crabgrass, Large plant response rating [4, 23] | Morningglory plant response rating [6, 21] | Velvetleaf plant response rating [8, 21] | Blackgrass plant response rating [9, 23] | Wheat plant response rating [10, 23]
100: Plant response rating, Barnyardgrass [1, 22] | Plant response rating (0 to 100 scale), Surinam Grass [2, 20] | Plant response rating, Surinam Grass [2, 22] | Plant response rating, Crabgrass, Large [4, 22] | Plant response rating, Pigweed [7, 22]
60: Pigweed plant response rating [7, 23] | Plant response rating (0 to 100 scale), Velvetleaf [8, 20]
30: Foxtail, Giant plant response rating [5, 21] | Foxtail, Giant plant response rating [5, 23] | Plant response rating, Morningglory [6, 22] | Pigweed plant response rating [7, 21] | Velvetleaf plant response rating [8, 23] | Oat, Wild plant response rating [11, 23]

C#CCOc1cccc(NC(=O)c2cc(C(C)(C)C)nn2CC)c1 [Compound 411]
30: Barnyardgrass plant response rating [1, 24] | Crabgrass, Large plant response rating [4, 24] | Foxtail, Giant plant response rating [5, 24] | Plant response rating (0 to 100 scale), Pigweed [7, 20] | Wheat plant response rating [10, 24]
50: Oat, Wild plant response rating [11, 24] | Rice plant response rating [12] | Barnyardgrass plant response rating [15]
10: Plant response rating (0 to 100 scale), Surinam Grass [2, 20] | Surinam Grass plant response rating [2, 24] | Corn plant response rating [3, 24] | Corn plant response rating [3, 25] | Plant response rating (0 to 100 scale), Foxtail, Giant [5, 20] | Velvetleaf plant response rating [8, 24]
40: Blackgrass plant response rating [9, 25] | Oat, Wild plant response rating [11, 25]
0: Barnyardgrass plant response rating ([1]; Postemergence, 125 g ai/ha, scale 0 (no effect) to 100 (complete control)) | Surinam Grass plant response rating [2, 25] | Plant response rating (0 to 100 scale), Corn [3, 20] | Crabgrass, Large plant response rating [4, 25] | Plant response rating (0 to 100 scale), Morningglory [6, 20] | Morningglory plant response rating [6, 24] | Morningglory plant response rating [6, 25] | Plant response rating (0 to 100 scale), Velvetleaf [8, 20] | Velvetleaf plant response rating [8, 25]
90: Pigweed plant response rating [7, 24]
60: Plant response rating (0 to 100 scale), Barnyardgrass [1, 20] | Blackgrass plant response rating [9, 24] | Wheat plant response rating [10, 26]
20: Foxtail, Giant plant response rating [5, 25] | Wheat plant response rating [10, 25]
80: Plant response rating (0 to 100 scale), Crabgrass, Large [4, 20] | Pigweed plant response rating [7, 25] | Sedge, Umbrella plant response rating [13] | Ducksalad plant response rating [14]

CCc1nn(C(C)(C)CC)nc1C(=O)Nc1cccc(C(=O)N(C)C)c1 [Compound 372]
60: Barnyardgrass plant response rating [1, 23] | Plant response rating (0 to 100 scale), Corn [3, 20] | Corn plant response rating [3, 23] | Plant response rating (0 to 100 scale), Foxtail, Giant [5, 20] | Morningglory plant response rating [6, 24]
10: Barnyardgrass plant response rating [1, 21] | Surinam Grass plant response rating [2, 21] | Surinam Grass plant response rating [2, 24] | Crabgrass, Large plant response rating [4, 21] | Plant response rating (0 to 100 scale), Morningglory [6, 20] | Plant response rating (0 to 100 scale), Velvetleaf [8, 20] | Velvetleaf plant response rating [8, 21] | Blackgrass plant response rating [9, 21] | Wheat plant response rating [10, 24]
50: Plant response rating (0 to 100 scale), Surinam Grass [2, 20] | Foxtail, Giant plant response rating [5, 23]
80: Plant response rating (0 to 100 scale), Barnyardgrass [1, 20] | Plant response rating (0 to 100 scale), Crabgrass, Large [4, 20] | Pigweed plant response rating [7, 24]
90: Wheat plant response rating [10, 26] | Rice plant response rating [12] | Sedge, Umbrella plant response rating [13] | Ducksalad plant response rating [14] | Barnyardgrass plant response rating [15]
30: Foxtail, Giant plant response rating [5, 21] | Velvetleaf plant response rating [8, 24] | Blackgrass plant response rating [9, 23] | Oat, Wild plant response rating [11, 24]
40: Pigweed plant response rating [7, 21]
0: Wheat plant response rating [10, 21] | Oat, Wild plant response rating [11, 21]
20: Corn plant response rating [3, 21] | Crabgrass, Large plant response rating [4, 23] | Morningglory plant response rating [6, 21]
